# Several values for one entry are separate records, joined by “and”; a condition that tells them apart may be missing. Identical values can stand only once.
# Legend:
# [1] = test system: ACh; experiment: ACh level in AlCl3-induced zebrafish AD model tissue; assay type: in vivo
# Excerpt: . After the behavioural experiments, the 168hpf zebrafish were killed and ground, the tissue were used to test the AChE activity and ACh levels. […] .
# [2] = test system: IL-6; experiment: IL-6 production in LPS-stimulated BV-2 cells (ELISA); assay type: cell-based; settings: 1 µM and 2 µM; 1 µg/mL LPS 24 h
# Method: (§1) Firstly, the cytotoxicity of compounds 3a, 3c, 3e, 3f, 3k, 3m and 3n were tested using CCK8 assay.
# (§2) BV-2 cells (2 × 10^5 cells/well) were seeded in a 24-well cell culture plates. The cells were divided into blank control group, model group (1 µg/mL LPS), LPS + 2 µM compound group, LPS + 1 µM compound group. Each drug group was pre-treated with corresponding concentration of drug solution for 8 h. After 8 h, the culture medium was aspirated out. Except for the blank control group, which was added with DMEM medium, the other groups were stimulated with 1 µg/mL LPS for 24 h. Then cell supernatant was aspirated and centrifuged at 3000 rpm for 3 min. The content of NO in cell culture supernatant was determined by Griess method, and the levels of cytokines IL-6 and IL-1β in cell culture supernatant were determined by IL-6 ELISA kit and IL-1β ELISA kit, respectively.
# [3] = target: T1, eqBuChE (Equus caballus, UniProt P81908); experiment: biochemical; set-up: species or system equine
# T1 construct: eqBuChE, from equine serum; purchased Sigma Aldrich; host or cells: equine serum (natural source)
# T1 sequence (P81908 whole entry): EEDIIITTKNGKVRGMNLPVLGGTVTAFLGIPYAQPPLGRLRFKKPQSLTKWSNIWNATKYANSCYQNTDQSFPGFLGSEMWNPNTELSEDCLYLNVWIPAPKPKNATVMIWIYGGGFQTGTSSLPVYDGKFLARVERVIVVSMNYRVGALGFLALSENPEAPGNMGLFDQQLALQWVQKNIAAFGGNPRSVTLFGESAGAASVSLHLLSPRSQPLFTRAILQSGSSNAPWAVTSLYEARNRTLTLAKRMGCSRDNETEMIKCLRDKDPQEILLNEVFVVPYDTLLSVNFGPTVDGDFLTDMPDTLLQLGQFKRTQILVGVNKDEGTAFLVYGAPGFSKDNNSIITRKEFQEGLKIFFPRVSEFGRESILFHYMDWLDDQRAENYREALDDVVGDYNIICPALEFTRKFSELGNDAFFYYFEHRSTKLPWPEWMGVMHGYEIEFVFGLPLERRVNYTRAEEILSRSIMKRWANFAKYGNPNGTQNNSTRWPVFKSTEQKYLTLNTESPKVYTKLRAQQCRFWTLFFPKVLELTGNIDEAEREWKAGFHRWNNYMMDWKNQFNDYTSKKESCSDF
# Method: The inhibitory activities of the synthesised compounds against eeAChE (from electric eel) and eqBuChE (from equine serum) were tested by the modified Ellman’s method[26]^,[27]. […] The determination of AChE and BuChE inhibitory potency of the synthesised compounds were evaluated by Ellman assay, the detailed procedure referred to our previous work[26]^,[27].
# [4] = Stability in artificial gastrointestinal fluids; assay type: in vitro ADME; settings: 8 h incubation
# Method: Compound 3f was selected to investigate the stabilities by artificial gastrointestinal conditions and (human and rat) liver microsomes.
# • The artificial gastrointestinal fluids were prepared on the basis of the standard method described in China Pharmacopoeia (version 2015). The artificial gastric fluid consisted of HCl (0.045 mol/L) and pepsin (10 g/L), while the artificial intestinal fluid consisted of trypsin (10 g/L) and KH2PO4 (6.8 g/L), and the pH was adjusted to 6.8 with 0.1 mol/L NaOH. The blank gastric fluid and blank intestinal fluid was similar as described above without pepsin and trypsin. Compound 3f (1 mg/mL, n = 3) was incubated with artificial gastric fluid、blank gastric fluid 、artificial intestinal fluid and blank intestinal fluid at 37 ◦C, and 600 µL methanol was then added into the reagent to stop reaction at time of 0, 0.5, 1, 2, 3, 4, and 8 h. […] The data were processed by GraphPad Prism 8.0 software.
# UPLC-MS/MS method: Targeted analytes were separated using a Agilent xbridge aq C18 column (4.6 mm × 250 mm, 5 µm, USA) at a flow rate of 0.4 ml/min. The mobile phase consisted of solvent A (deionised water with 0.1% formic acid) and solvent B (acetonitrile with 0.1% formic acid). The gradient elution program was as follows: 0–0.5 min (10% B); 0.5–2.5 min (10–98% B); 2.5–3.5 min (98% B); 3.5–3.6 min ([…]); 3.6–5.0 min (10% B). The autosampler temperature was maintained at 12 °C and the injection volume was set at 1 µL.
# The mass spectrometer was operated in positive ion mode through multiple-reaction monitoring. The parameters of the mass spectrometer were as follows: capillary ionisation voltage of 3500 V: source gas temperature of 300 °C gas flow of 11 L/min.
# [5] = test system: AlCl3-induced zebrafish AD model; experiment: Behavioural assay in AlCl3-induced zebrafish AD model; assay type: in vivo
# [6] = target: T2, hBuChE (Homo sapiens, UniProt P06276); experiment: hBuChE reversibility of inhibition (recovery after dilution); assay type: biochemical
# T2 construct: hBuChE, human serum BuChE; purchased Sigma Aldrich; host or cells: human serum (natural source)
# T2 sequence (P06276 29-602): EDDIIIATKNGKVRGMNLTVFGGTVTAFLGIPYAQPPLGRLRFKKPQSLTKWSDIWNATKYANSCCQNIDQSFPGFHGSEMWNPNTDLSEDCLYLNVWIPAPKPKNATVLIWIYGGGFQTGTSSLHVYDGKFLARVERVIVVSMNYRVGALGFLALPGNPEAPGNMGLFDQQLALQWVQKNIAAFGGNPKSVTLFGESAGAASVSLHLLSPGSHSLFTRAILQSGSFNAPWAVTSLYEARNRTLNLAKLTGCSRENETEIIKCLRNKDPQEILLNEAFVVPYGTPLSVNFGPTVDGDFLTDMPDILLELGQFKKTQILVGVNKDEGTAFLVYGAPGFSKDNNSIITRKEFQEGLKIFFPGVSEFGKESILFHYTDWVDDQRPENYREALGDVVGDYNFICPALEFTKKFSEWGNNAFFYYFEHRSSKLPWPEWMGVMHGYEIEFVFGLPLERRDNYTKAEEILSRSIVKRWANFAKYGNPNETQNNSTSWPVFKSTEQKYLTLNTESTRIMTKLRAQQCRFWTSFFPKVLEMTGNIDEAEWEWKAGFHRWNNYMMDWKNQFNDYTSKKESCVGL
# [7] = target: T3, eeAChE (Electrophorus electricus, UniProt O42275); experiment: Enzyme kinetic study (Lineweaver-Burk) of eeAChE inhibition; assay type: biochemical, electric eel
# T3 construct: eeAChE, from the electric eel; purchased Sigma Aldrich; host or cells: electric eel (natural source)
# T3 sequence (O42275 24-633): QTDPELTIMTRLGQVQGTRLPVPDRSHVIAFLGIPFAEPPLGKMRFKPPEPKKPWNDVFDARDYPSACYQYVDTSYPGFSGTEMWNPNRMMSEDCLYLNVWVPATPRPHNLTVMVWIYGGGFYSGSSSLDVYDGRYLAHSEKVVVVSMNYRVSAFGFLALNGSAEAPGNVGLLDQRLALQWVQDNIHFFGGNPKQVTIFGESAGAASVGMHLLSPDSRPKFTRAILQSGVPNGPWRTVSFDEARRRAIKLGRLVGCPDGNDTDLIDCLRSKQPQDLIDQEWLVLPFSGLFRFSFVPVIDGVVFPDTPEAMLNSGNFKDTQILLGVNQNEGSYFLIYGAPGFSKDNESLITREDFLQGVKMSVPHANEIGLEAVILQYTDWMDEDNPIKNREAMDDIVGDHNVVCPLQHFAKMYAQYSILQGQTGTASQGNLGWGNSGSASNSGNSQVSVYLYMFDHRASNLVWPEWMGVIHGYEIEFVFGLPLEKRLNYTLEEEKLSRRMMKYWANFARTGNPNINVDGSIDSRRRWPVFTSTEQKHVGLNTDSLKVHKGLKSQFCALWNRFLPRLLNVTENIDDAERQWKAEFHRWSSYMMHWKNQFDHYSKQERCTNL
# Excerpt: In order to determine the mechanism of quinoline-O-carbamate derivatives, the representative compound 3f was chose to perform Lineweaver-Burk double reciprocal plot by plotting the initial velocities of the substrate at y-axis and increasing concentrations substrate at x-axis[27].
# Figure 7. Enzyme kinetic study on the mechanism of eeAChE inhibition by compound 3f. (A) Overlaid Lineweaver-Burk reciprocal plots of AChE initial velocity at increasing acetylthiocholine concentration in the absence and in the presence of 3f were determined.
# [8] = Rat plasma stability; settings: after 3 h incubation
# Method: • 2.The stability of 3f was performed in rat liver microsomes. The rat liver microsomes was purchased from Dalian Meilun Biotechnology Co., Ltd, DaLian, China. […] Solution B (25 mL) contained G-6-P-DH (1000 U), Na-Citrate2 (200 mg), and H2O was used as a solvent. NADPH solution (1 mM) was composed by solution A and solution B (v/v = 5:1). […] The reaction was started by the addition of NADPH. The total mixture (200 µL) was incubated at 37 °C. Cold methanol (600 µL) was added at 0, 5, 15, 20, 30, 45 and 60 min, respectively, to stop the reaction. Samples were centrifuged at 13000 rpm for 10 min at 4 °C, and 100 µL supernatant was removed and analysed by UPLC-MS/MS. The stability results were presented as % remaining vs. time. The experiments were conducted in triplicate. • 3.The stability of 3f was performed in rat plasma. […] The supernatant was dried and redissolved in 100 µL methanol. After centrifugation, the supernatant was analysed by UPLC-MS/MS. The stability data were presented as remaining percentage vs time.
# [9] = target: T4, hAChE (Homo sapiens, UniProt P22303); experiment: biochemical; settings: from human erythrocytes; read-out: IC50 ± SD hAChE
# T4 construct: hAChE, from human erythrocytes AChE; purchased Sigma Aldrich; host or cells: human erythrocytes (natural source)
# T4 sequence (P22303 32-617 isoform P22303-2 limits assumed): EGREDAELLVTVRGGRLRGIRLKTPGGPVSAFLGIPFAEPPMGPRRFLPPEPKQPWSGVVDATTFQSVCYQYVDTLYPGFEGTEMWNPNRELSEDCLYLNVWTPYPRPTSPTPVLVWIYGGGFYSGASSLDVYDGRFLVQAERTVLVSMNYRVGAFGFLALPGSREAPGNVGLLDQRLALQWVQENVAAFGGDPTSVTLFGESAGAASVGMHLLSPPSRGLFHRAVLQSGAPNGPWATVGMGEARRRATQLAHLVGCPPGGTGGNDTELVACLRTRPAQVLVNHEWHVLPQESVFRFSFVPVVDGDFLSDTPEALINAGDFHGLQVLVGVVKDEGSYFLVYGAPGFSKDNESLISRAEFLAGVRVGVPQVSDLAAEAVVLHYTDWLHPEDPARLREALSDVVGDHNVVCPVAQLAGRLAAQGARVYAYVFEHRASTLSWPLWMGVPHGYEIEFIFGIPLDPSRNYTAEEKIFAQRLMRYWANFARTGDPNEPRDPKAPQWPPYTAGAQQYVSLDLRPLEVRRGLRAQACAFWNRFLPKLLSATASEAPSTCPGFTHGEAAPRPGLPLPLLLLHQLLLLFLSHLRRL
# Method: (§3) Acetylcholinesterase (eeAChE, from the electric eel; hAChE, from human erythrocytes AChE), butyrylcholinesterase (eqBuChE, from equine serum; hBuChE, human serum BuChE), 5,5′-dithiobis-2-nitrobenzoic acid (Ellman’s reagent, DTNB), acetylthiocholine chloride (ATC), and butyrylthiocholine chloride (BTC) were purchased form Sigma Aldrich. The determination of AChE and BuChE inhibitory potency of the synthesised compounds were evaluated by Ellman assay, the detailed procedure referred to our previous work[26]^,[27].
# [10] = target: T2, hBuChE; experiment: biochemical
# Method: as §3
# [11] = test system: NO; experiment: NO release in LPS-stimulated BV-2 cells (Griess method); assay type: cell-based; settings: 1 µg/mL LPS 24 h
# Method: as §1, §2
# [12] = alternating dark light stimuli, 0.08 µM
# [13] = alternating dark light stimuli, 0.16 µM
# [14] = alternating dark light stimuli, 0.32 µM
structure (smiles),measurement,setting,value
"CCN(CC)C(=O)Oc1cccc2ncccc12 [Compound 3f, Quinolin-5-yl diethylcarbamate]",ACh activity (level),[1]; 0.08 µM,16.4 pmol/L
same,ACh activity (level),[1]; 0.16 µM,18.4 pmol/L
same,ACh activity (level),[1]; 0.32 µM,15.4 pmol/L
same,levels of IL-6 compared with model group,[2],significantly decreased
same,IC50,"[3]; BuChE from equine serum, read-out: IC50 ± SD eqBuChE",810 ± 60 nM
same,SI = IC50 (AChE)/IC50 (BuChE),[3]; eeAChE/eqBuChE,1.6
same,remaining amount,[4]; artificial gastric fluid,99.2%
same,remaining amount,[4]; artificial intestinal fluid,107.7%
same,remaining amount,[4]; blank gastric fluid,102.6%
same,remaining amount,[4]; blank intestinal fluid,103.4%
same,total velocity,"[5]; 0.16 µM, compared with donepezil",could improve AlCl3-induced zebrafish AD model
same,distance moved,[5]; [12],1029.2 cm
same,velocity,[5]; [12],17.5 cm/min
same,distance moved,[5]; [13],1241.5 cm
same,velocity,[5]; [13],22.3 cm/min
same,distance moved,[5]; [14],1022.8 cm
same,velocity,[5]; [14],17.0 cm/min
same,distance moved,"[5]; dark environment, 0.08 µM",607.3 cm
same,velocity,"[5]; dark environment, 0.08 µM",21.3 cm/min
same,distance moved,"[5]; dark environment, 0.16 µM",709.4 cm
same,velocity,"[5]; dark environment, 0.16 µM",24.7 cm/min
same,distance moved,"[5]; dark environment, 0.32 µM",521.7 cm
same,velocity,"[5]; dark environment, 0.32 µM",17.3 cm/min
same,optimal dose,"[5]; dyskinesia and reaction capacity, ACh levels",0.16 µM
same,velocity,"[5]; light condition, 0.08 µM",14.7 cm/min
same,velocity,"[5]; light condition, 0.16 µM",19.3 cm/min
same,velocity,"[5]; light condition, 0.32 µM",17.6 cm/min
same,reversibility of hBuChE inhibition,[6],reversible hBuChE inhibitor
same,hBuChE activity (% control),"[6]; 0.1*IC50, diluted",53.6 % control
same,hBuChE activity restored,"[6]; 0.1 × IC50, 120 min",70.7%
same,hBuChE activity restored,"[6]; 0.1 × IC50, 240 min",95.6%
same,hBuChE activity (% control),"[6]; 1*IC50, diluted",51.4 % control
same,hBuChE activity (% control),"[6]; 1*IC50, undiluted",48.8 % control
same,type of AChE inhibition,[7]; Lineweaver-Burk plot,mixed-type
same,Ki,"[7]; replot of slope versus concentration, read-out: inhibition constant Ki",1730 nM
same,remaining amount in rat plasma,[8],95.5%
same,IC50,[9],5600 ± 70 nM
same,IC50,"[10]; from human serum, read-out: IC50 ± SD hBuChE",2340 nM and 2300 nM
same,SI = IC50 (AChE)/IC50 (BuChE),[10]; hAChE/hBuChE,2.4
same,release volume of NO,[11],significantly decreased
